According to patent US10053502B2, “Selective inhibitors of c-Fos and their antiproliferative properties” (INSERM (INSTITUT NATIONAL DE LA SANTÉ ET DE LA RECHERCHE …, priority 2014, dated 2018):
pIC50: −log10 of the molar value. Like-named read-outs stand apart in the source and are kept apart here. Residues, ends and D or L forms follow the SMILES beside them.

Experiments:
[1] = system: human coronary arterial endothelial cells (HCAEC); test: Serum-induced proliferation of HCAEC, BrdU incorporation; assay type: cell-based; conditions: 10% serum, peptide 3-12 μM, U0126 10 μM, Paclitaxel 10 nM, VIVIT 100 μM
Procedure: Using the same protocol than in FIG. 3, cells were grown in the presence of 10% serum after withdrawal. The peptide TAT-DEF-c-Fos was applied at a single dose one day after withdrawal. Proliferation was tested using a BrdU assay; n=3; One-way ANOVA; Dunett post hoc test; * p<0.05; when compared to the group treated with 10% serum
Primary human coronary arterial endothelial cells (HCAEC) (Promocell C12222) were grown in Endothelial Cell Growth Medium MV2 (Promocell).
(§1) 10 000 cells per well were grown in the presence of complete medium. After one cycle of cell division (around 32 hours for HCAEC and vSMC, 24 hours for NIH3T3), the cells were starved for one other cycle (0.1% serum or nutriment supplement for HCAEC). […] Proliferation was analyzed after BrdU incorporation, which allows the visualization of cells under division. For HCAEC and vSMC, BrdU was added with inhibitor. For NIH3T3, it was added only during the last three hours. Cells were fixed in 4% paraformaldehyde.
(§2) Only the nuclei with an intact nucleus were taken into account. Image-Pro Plus software (Media Cybernetics) was used in order to quantify BrdU positive cells. The percentage of positive cells was reported to the total number of Hoechst-positive cells.

vSMC = test: Wound healing assay (invasiveness) in vSMC; assay type: cell-based, human; conditions: 24 to 72 hours, U0126 10 μM, Paclitaxel 10 nM, 10% serum
Procedure: The peptide was applied once, at the same time as 10% serum. The invasiveness was calculated as the percentage of cells over the size of the lesion, 24, 48 and 72 hours post-lesion.
Cells were cultured in 24-well plates as a confluent monolayer (30000 cells plated per well). […] Cells were fixed in 4% paraformaldehyde then stained with cresyl violet dye (1% in methanol). Pictures were taken to visualize the marked wound location. The wound healing effect was measured using the NIH ImageJ program and expressed as percentage of recovery of the lesion.
Invasive properties were studied using the wound healing protocol.
The percentage of lesion recovery was measured after cresyl violet staining of vSMC cells (FIG. 8).

[2] = system: sNF96.2 (MPNST cell line); assay type: cell-based, human; conditions: MTT, 96 hours; for anti-proliferative properties on MPNST (words): 2 to 100 μM
Procedure: The inventors have further tested 4 different peptides in the Peripheral Nerve Sheath Tumors (MPNST) cell lines sNF96.2, which was deposited to the ATCC under the reference ATCC® CRL-2884™.
Cells were cultured at DayO in a complete medium (DMEM with 10% of fetal bovine serum). Then they were deprived at Day2 (24 hours in a medium comprising DMEM with 0.1% fetal bovine serum followed by 24 hours in DMEM alone).
At Day 4, the cells were incubated with a dose escalation regimen of pepsignal peptides from 2 to 100 μM.
The proliferation tests were carried out 96 hours later.
Proliferation was analysed by a MTT assay. The MTT assay is a colorimetric assay for assessing cell viability. The viability is measured by the metabolic activity if the cells, which is determined by the activity of a mitochondrial succinate dehydrogenate. Typically, the cell media goes from yellow to blue and the intensity of the coloration is proportional to the number of viable cells. Coloration is determined by […] at 570 nm.
The inventors performed three independent experiments, each point being performed in duplicate for each experiment.

NIH3T3 cells = test: Serum-induced proliferation of NIH3T3 fibroblasts, BrdU incorporation; assay type: cell-based, mouse; conditions: 10% serum; BrdU 3 h; peptide 1 to 12 μM, U0126 10 μM
Procedure: On day one, 10 000 cells per well were grown in the presence of 10% serum.
NIH 3T3 mouse embryonic fibroblast cells were grown in DMEM supplemented with 10% (v/v) heat-inactivated FBS, 100 U/ml penicillin, and 100 μg/ml streptomycin.
as §1, §2

[3] = system: malignant peripheral nerve sheat tumors (MPNST) from NF1 patients; test: Proliferation of MPNST cell lines from NF1 patients; assay type: cell-based; conditions: Homo sapiens, read-out: IC50, inhibition of proliferation of MPNST, 15% serum, control
Procedure: Human cell lines from malignant peripheral nerve sheat tumors (MPNST) were treated with either TAT-DEF-c-Fos at increasing doses, or as a control, with Rapamycin, an inhibitor of the mTOR pathway that is classically used as an inhibitor of proliferation on this cell line. The TAT-DEF-c-Fos peptide inhibited proliferation of MPNST at very low doses when compared to Rapamycin (IC50 for TAT-DEF-c-Fos around 10 μM instead of 10 mM for Rapamycin).
Malignant Peripheral Nerve Sheath Tumors (MPNST: from NF1 patients) were obtained from Michel Videaud's laboratory. 2000 cells were grown in the presence of 15% serum after withdrawal.
The inventors tested the efficacy of TAT-DEF-c-Fos on malignant NF1 cell proliferation (FIG. 9). For this purpose, the inventors used Human cell lines from malignant peripheral nerve sheat tumors (MPNST) from NF1 patients.
The MPNST cell lines were derived from a recurrent mass associated with peripheral nerve sheat and diagnosed as MPNST (Malignant Peripheral Nerve Sheath Tumor) in patients meeting NF1 diagnostic criteria.

[4] = system: vascular smooth muscle cells (vSMC); test: Serum-induced proliferation of vSMC, BrdU incorporation; assay type: cell-based, human; conditions: 3, 6 and 12 μM, 10% serum
Procedure: On day one, 10 000 cells per well were grown in the presence of 10% serum. […] On the bases of our previous results in neuronal cells (see Lavaur et al., 2007) three different doses of pepsignal were tested: from 3 to 12 μM.
Using the same protocol as in FIG. 3, cells were grown in the presence of 10% FBS (serum) after withdrawal. The peptide TAT-DEF-c-Fos was applied once (6 or 12 μM) on day one (first day after withdrawal) and proliferation was tested using a BrdU assay 24, 48 or 72 hours later. When indicated, multiple applications of the peptide were done (“m”) every 24 hours. Note that the TAT-DEF-c-Fos12 μM is not reported herein; n=3; Two-way ANOVA; Bonferroni post hoc test; *** p<0.001 when compared to the group treated with 10% serum.
Primary vascular smooth muscle cells (vSMC) (ATCC CRL-1999) were grown in DMEM F12K medium supplemented 0.05 mg/ml ascorbic acid; 0.01 mg/ml insulin; 0.01 mg/ml transferrin; 10 ng/ml sodium selenite; 10% (v/v) heat-inactivated FBS (Fetal Bovine Serum), 100 U/ml penicillin, and 100 μg/ml streptomycin, 10 mM HEPES.
10 000 cells per well were grown in the presence of complete medium. […] Proliferation was analyzed after BrdU incorporation, which allows the visualization of cells under division. […]
Only the nuclei with an intact nucleus were taken into account. Image-Pro Plus software (Media Cybernetics) was used in order to quantify BrdU positive cells. […]

Compound	inhibition of HCAEC cell proliferation [1]	effect on vSMC invasiveness (wound healing) (vSMC)	anti-proliferative properties on MPNST (words) [2]	inhibition of NIH3T3 fibroblast proliferation (NIH3T3 cells)	other results
CC(=O)O[C@H]1C(=O)[C@@]2(C)[C@H]([C@H](OC(=O)c3ccccc3)[C@]3(O)C[C@H](OC(=O)[C@H](O)[C@@H](NC(=O)c4ccccc4)c4ccccc4)C(C)=C1C3(C)C)[C@]1(OC(C)=O)CO[C@@H]1C[C@@H]2O [Paclitaxel]	efficient	significant but transient effect	–	–	–
CC[C@H](C)[C@H](NC(=O)[C@H](CCCCN)NC(=O)[C@@H](NC(=O)[C@H](CCC(N)=O)NC(=O)[C@@H](N)CCCNC(=N)N)[C@@H](C)CC)C(=O)N[C@@H](Cc1c[nH]c2ccccc12)C(=O)N[C@@H](Cc1ccccc1)C(=O)N[C@@H](Cc1c[nH]c2ccccc12)C(=O)N[C@@H](CC(N)=O)C(=O)N[C@@H](CCCNC(=N)N)C(=O)N[C@@H](CCCNC(=N)N)C(=O)N[C@@H](CCSC)C(=O)N[C@@H](CCCCN)C(=O)N[C@@H](Cc1c[nH]c2ccccc12)C(=O)N[C@@H](CCCCN)C(=O)N[C@@H](CCCCN)C(=O)N1CCC[C@H]1C(=O)N1CCC[C@H]1C(=O)N[C@@H](CS)C(=O)N[C@H](C(=O)N[C@H](C(=O)N[C@@H](Cc1ccc(O)cc1)C(=O)N[C@H](C(=O)N[C@@H](CO)C(=O)N[C@@H](CO)C(=O)N[C@@H](Cc1ccccc1)C(=O)N[C@H](C(=O)N[C@@H](Cc1ccccc1)C(=O)N[C@H](C(=O)N[C@@H](Cc1ccc(O)cc1)C(=O)N1CCC[C@H]1C(=O)N[C@@H](CCC(=O)O)C(=O)N[C@@H](C)C(=O)N[C@@H](CC(=O)O)C(=O)N[C@@H](CO)C(=O)N[C@@H](Cc1ccccc1)C(=O)N1CCC[C@H]1C(=O)N[C@@H](CO)C(=O)O)[C@@H](C)O)C(C)C)[C@@H](C)O)[C@@H](C)O)[C@@H](C)O [Penetratin-DEF-c-Fos] (H-RQIKIWFWNRRMKWKKPPCTTYTSSFVFTYPEADSFPS-OH; N-terminus and C-terminus assumed)	–	–	lower efficacy than the TAT-DEF-c-Fos peptide	–	inhibition of proliferation of sNF96.2 ([2]; 100 μM): ~66%
N#CC(=C(/N)Sc1ccccc1N)/C(C#N)=C(\N)Sc1ccccc1N [Peptide U0126, U0126]	efficient	lack of effect	–	failed to inhibit proliferation	effect on vSMC invasiveness (wound healing) (vSMC; listed as classical MEK inhibitor): failed to block invasiveness
CO[C@H]1C[C@@H]2CC[C@@H](C)[C@@](O)(O2)C(=O)C(=O)N2CCCC[C@H]2C(=O)O[C@H]([C@H](C)C[C@@H]2CC[C@@H](O)[C@H](OC)C2)CC(=O)[C@H](C)/C=C(\C)[C@@H](O)[C@@H](OC)C(=O)[C@H](C)C[C@H](C)/C=C/C=C/C=C/1C [Rapamycin]	–	–	–	–	pIC50 [3]: ~2.00
CC[C@H](C)[C@H](NC(=O)[C@H](Cc1c[nH]cn1)NC(=O)[C@@H](NC(=O)[C@H](CCC(N)=O)NC(=O)[C@H](C)NC(=O)[C@H](CO)NC(=O)CNC(=O)[C@H](CO)NC(=O)[C@H](CO)NC(=O)[C@@H]1CCCN1C(=O)[C@H](Cc1ccccc1)NC(=O)[C@H](CCC(N)=O)NC(=O)[C@H](Cc1ccccc1)NC(=O)[C@H](CO)NC(=O)[C@H](CC(C)C)NC(=O)[C@H](CCCCN)NC(=O)[C@H](C)NC(=O)[C@@H]1CCCN1C(=O)[C@H](CO)NC(=O)[C@@H]1CCCN1C(=O)[C@@H]1CCCN1C(=O)[C@H](CCCNC(=N)N)NC(=O)[C@H](CCCNC(=N)N)NC(=O)[C@H](CCCNC(=N)N)NC(=O)[C@H](CCC(N)=O)NC(=O)[C@H](CCCNC(=N)N)NC(=O)[C@H](CCCNC(=N)N)NC(=O)[C@H](CCCCN)NC(=O)[C@H](CCCCN)NC(=O)[C@H](CCCNC(=N)N)NC(=O)CN)C(C)C)C(=O)O [TAT-DEF-Elk-1] (H-GRKKRRQRRRPPSPAKLSFQFPSSGSAQVHI-OH; N-terminus and C-terminus assumed)	no effect	–	slight inhibitory effect	no effect	anti-proliferative properties on vSMC (serum-induced proliferation) [4]: not and no effect; anti-proliferative properties on MPNST (words) ([2]; listed as TAT-DEF-Elk1): low anti-proliferative properties; inhibition of proliferation of sNF96.2, maximum reached ([2]; even at higher doses (up to 100 μM)): < 50%
TAT-DEF-JunB: SEQ ID NO: 37 GRKKRRQRRRPPTTPTPPGQYFYPRGGGSGGGAG (pepsignal)	–	–	lower efficacy than the TAT-DEF-c-Fos peptide	–	–
